Entries after “also recorded” stand apart in the source; their conditions may differ.
Key:
[1] = tested on: PTP/SHP-1 activity in KPC tumor; test: PTP/SHP-1 activity in KPC tumor in vivo; set-up: species or system murine; conditions: therapeutic treatment of KPC tumor
[2] = tested on: Human monocyte-derived macrophages; test: Human monocyte-derived macrophage response in tumor milieu configurations; type: cell-based; conditions: co-cultured with cancer cells (configuration 3)
Description: Mechanism by which tumor cells inhibit macrophage proinflammatory response in TME was studied. As shown in panel A of FIG. 19, macrophage responses were assayed in a tumor milieu: Human monocyte-derived macrophages (MØ) were cultured alone (configuration 1), cultured in the presence of cancer cells-conditioned medium (50%) that contained cancer cell secreted factors (secretome; configuration 2), or co-cultured with cancer cells (cell “touch” model; configuration 3), or co-cultured with cancer cells that were placed in a transwell (0.4 μm) without “touching” MØ(configuration 4). Macrophages in these settings were treated with proinflammatory stimuli TLR agonist R848 (l g/ml), R848 plus IFNγ (40 ng/ml), or the sting activator MSA-2 (10 μg/ml).

[3] = tested on: PTP activity in macrophages; test: PTP activity in macrophages co-cultured with cancer cells and stimulated with IFNγ/LPS or TLR agonists; type: cell-based; set-up: concentration or dose not given beside the values; conditions: induced by IFNγ/LPS or TLR agonists, with cancer cell ligation, 30 min, 37 °C
Description: (§1) FIGS. 3A-3E depict modulation of SHP-1 activity in proinflammatory macrophages in cancer. Macrophages co-cultured with cancer cells were stimulated with IFNγ/LPS or TLR agonists (αTLR) comprising CpG, polycytidylic acid (i.e., PolyI:C) and R848 (each 0.4 μg/ml) for 30 min (37 °C) in the presence or the absence of different SHP-1 or SHP-2 inhibitor or activator, followed by cell lysis and assays of PTP activity. FIG. 3A depicts SHP-1 activity regulation mechanisms. […] FIG. 3E depicts that PKCθ negatively regulates SHP-1 activity at a moderate level.

SHP-1 [4] = test: SHP-1 activity in macrophages under proinflammatory stimulation and cancer cell ligation; type: cell-based; conditions: IFNγ/LPS stimulation, cancer cell ligation
Description: FIGS. 2A-2G depict that the inhibition of SHP-1 enhances macrophage proinflammatory response, antigen presentation and phagocytosis in a tumor milieu. FIG. 2A and FIG. 2B depict that SHP-1 activity in macrophages is triggered by proinflammatory stimulation and the extracellular cancer cell ligation (“touching”) of macrophages (green bar in FIG. 2A). […] The SHP-2 inhibitor SHP099 (1 μg/ml) was used in assays. FIG. 2C depicts the inhibition of SHP-1 by TPI-1 dose-dependently recovers IFNγ/LPS-induced activation of STAT1 (p-STAT1) and Erk1/2 (p-Erk1/2) de-activated by SHP-1 (red line). FIG. 2D and FIG. 2E depict that the inhibition of SHP-1 in macrophages by TPI-1 enhances production of proinflammatory cytokines (FIG. 2D) and expression of immunogenic antigen presentation machinery (FIG. 2E) by IFNγ/LPS in a tumor milieu. […] The SHP-1 and SHP-2 inhibitors TPI-1 and SHP099, respectively, was used at 1 μg/ml in assays.
as §1
In addition to TPI-1, several other SHP-1 inhibitors such as PTP inhibitor-I, PTP inhibitor-III, and recently reported vitamin E (9, 10) and phomoxanthone A and B (P×A and P×B) (11) were tested. Given that PKCθ modulates SHP-1 activity through phosphorylating Ser591 (12, 13), PKCθ inhibitor and activator were also tested in various assays.

macrophages [5] = test: Macrophage cytokine production under immunosuppressive or proinflammatory stimulation with cancer cell ligation; type: cell-based
From the text: FIGS. 6A-6D depict that the inhibition of SHP-1 promotes anti-tumor effects or pro-tumor effects under different circumstances. FIG. 6A depicts that intratumoral macrophages upregulate expression of iRs (Pir-B, Siglec E, F and G, and SIRPα) along with tumor progression to late-stage large sizes. KPC pancreatic tumors of small sizes (<150 mm^3) and those grown to larger sizes (>800 mm^3) were dissociated to single cells, followed by flow cytometry analyses for cell surface protein expression on macrophages (gated F4/80+). FIG. 6B depicts that the inhibition of SHP-1 alone promotes TME immunosuppression. Excised MC38 solid tumor cubes were treated with SHP-1 inhibitor TPI-1 (100 nM) or vehicle (DMSO) in a cell culture setting. After 24 h, tumor secreting cytokines into the culture medium were assayed by ELISA.
The SHP-1 activity in non-therapeutic solid tumors is low (see FIGS. 7A-7D), and this low activity inhibits immunosuppressive receptor signaling. […] In parallel experiments, the same SHP-1 inhibitors augmented macrophage responses to the M1 stimuli IFNγ and LPS and enhanced proinflammatory cytokine production.

[6] = tested on: TLR7/8 overexpressing pancreatic cancer cell line; conditions: stimulation of TLR7/8; cited from earlier work
[7] = tested on: malignant melanoma and advanced malignancies; conditions: cited from earlier work
macrophages [8] = test: Macrophage antigen presentation and proinflammatory response in presence of tumor cells with or without iShp1; type: cell-based; conditions: for pro-inflammatory activation of macrophages: combined with iShp1 (TPI-1), tumor milieu
Description: FIGS. 16A-16D depicts activation of macrophage proinflammatory response and antigen presentation in a tumor milieu by SHP-1 inhibition (iShp1) combination regimens. FIG. 16A depicts the testing system. FIG. 16B and FIG. 16C depict effects of interferons with or without TPI-1. FIG. 16D depicts effects of various agents including IL-1 family cytokines (IL-1, IL-18), TNFα and TLR ligands combined with TPI-1.
In vitro macrophages were assayed in the presence of tumor cells that ligate macrophage iRs with or without inhibition of SHP-1 (iShp1) by TPI-1. See the testing system in FIG. 16A.

SHP-1 [9] = test: SHP-1 binding to macrophage iRs with phosphorylated ITIMs; type: cell-based; conditions: macrophages stimulated
From the text: Proinflammatory signal-induced Src family TK(s) mediate phosphorylation in the cytoplastic domain ITIMs that dock SHP-1 leading to SHP-1 activation.

SHP-2 = SHP-2 binding to macrophage iRs with phosphorylated ITIMs; type: cell-based; conditions: macrophages stimulated

Nc1nc2c(ncn2[C@@H]2O[C@@H]3COP(=O)(O)O[C@H]4[C@@H](O)[C@H](n5cnc6c(N)ncnc65)O[C@@H]4COP(=O)(O)O[C@@H]2[C@@H]3O)c(=O)[nH]1 [2′3′-cGAMP]
PTP/SHP-1 activity induced in tumor [1]: induced spikes of PTP activities

Nc1ncn([C@@H]2O[C@H](CO)[C@@H](O)[C@H]2O)c(=O)n1 [Azacitidine (AZA), Azacitidine]
PTP/SHP-1 activity induced in tumor [1]: spikes of SHP-1 activity are induced

COc1cc2cc(C(=O)CCC(=O)O)sc2cc1OC [MSA-2]
macrophage proinflammatory response in co-culture with cancer cells [2]: abolishment of proinflammatory response and enhanced immunosuppression with high IL-10 and TGFβ production

O=C1C(=NNc2ccc(S(=O)(=O)O)cc2)C(c2ccc([N+](=O)[O-])cc2)=NN1c1ccccc1 [PHPS1]
PTP activity diminished in macrophages [3]: < 10%

CCCCCCCCCCCCCC(=O)O[C@@H]1[C@@H](C)[C@@]2(O)[C@@H](C=C(CO)C[C@]3(O)C(=O)C(C)=C[C@@H]23)[C@@H]2C(C)(C)[C@]12OC(C)=O [PMA]
SHP-1 activity in macrophages (effect in words) (SHP-1 [4]): moderately inhibited SHP-1; also recorded: reduced SHP-1 activity

O=C(CBr)c1ccc(O)cc1 [PTP-I]
macrophage production of IL-12 and TNFα (macrophages [5]; IFNγ and LPS): dose-dependently augmented macrophage proinflammatory response with increased IL-12 and TNFα | macrophage production of IL-10 and TGFβ (macrophages [5]; IL-4/13 or IL-10 stimulation): dose-dependently augmented | PTP activity diminished in macrophages [3]: > 70%

CCOCc1nc2c(N)nc3ccccc3c2n1CC(C)(C)O [R848]
cell proliferation and chemosensitivity [6]: increased cell proliferation and reduced chemosensitivity | macrophage proinflammatory response in co-culture with cancer cells [2]: abolishment of proinflammatory response and enhanced immunosuppression with high IL-10 and TGFβ production

CC1(N)CCN(c2cnc(-c3cccc(Cl)c3Cl)c(N)n2)CC1 [SHP099]
PTP activity diminished in macrophages [3]: < 10%

O.O.O.O.O.O.O.O.O.O=C([O-])[C@@H]1[O][Sb]2([O-])([O][Sb]34([OH])[O][C@H]([C@H](O)CO)[C@H]([O]3)[C@H](C(=O)[O-])[O]4)[O][C@H]([C@H](O)CO)[C@@H]1[O]2.[Na+].[Na+].[Na+] [SSG, sodium stibogluconate]
effect against tumor development ([7]; combination with interferons, with or without chemotherapy): no effect was seen against tumor development | most common toxic side-effects, share of patients ([7]; thrombocytopenia, elevated serum lipase, fatigue, fever, chills, anemia, hypokalemia, pancreatitis, skin rash): up to 68 % of patients

CC(C)[C@@](C)(O)[C@@H]1CN(c2nc(-c3[nH]nc4ncccc34)c(F)cc2Cl)CCN1 [VTX27]
SHP-1 activity in macrophages (effect in words) (SHP-1 [4]): increased SHP-1 activity

IFNα
antigen presentation and proinflammatory response (macrophages [8]; alone, without and with iShp1 (TPI-1)): did not induce antigen presentation or proinflammatory response

IL-1β: IL-1 family cytokine
pro-inflammatory activation of macrophages (macrophages [8]): exhibited capacities of pro-inflammatory activation of macrophages

IL-4: immunosuppressive cytokine
binding of SHP-1 to iR ITIMs (SHP-1 [9]): leads to binding of SHP-1 | binding of SHP-2 to iR ITIMs (SHP-2): SHP-2 binding is dominated

IL-6: activating cytokine
binding of SHP-1 to iR ITIMs (SHP-1 [9]): SHP-1 binding occurs exclusively under proinflammatory conditions

IL-10: immunosuppressive cytokine
binding of SHP-1 to iR ITIMs (SHP-1 [9]): leads to binding of SHP-1 | binding of SHP-2 to iR ITIMs (SHP-2): SHP-2 binding is dominated

IL-18: IL-1 family cytokine
pro-inflammatory activation of macrophages (macrophages [8]): exhibited capacities of pro-inflammatory activation of macrophages

Phomoxanthone A [Phomoxanthone A (PXA)]
SHP-1 activity in macrophages (effect in words) (SHP-1 [4]): dose-dependently, moderately inhibited SHP-1 activity

TGFβ: immunosuppressive cytokine
binding of SHP-1 to iR ITIMs (SHP-1 [9]): leads to binding of SHP-1 | binding of SHP-2 to iR ITIMs (SHP-2): SHP-2 binding is dominated

TNFα
binding of SHP-1 to iR ITIMs (SHP-1 [9]): SHP-1 binding occurs exclusively under proinflammatory conditions | pro-inflammatory activation of macrophages (macrophages [8]): exhibited capacities of pro-inflammatory activation of macrophages

lipopolysaccharide [LPS]
binding of SHP-1 to iR ITIMs (SHP-1 [9]): SHP-1 binding occurs exclusively under proinflammatory conditions

pervanadate
PTP activity diminished in macrophages [3]: > 70%

polycytidylic acid [PolyIC]
binding of SHP-1 to iR ITIMs (SHP-1 [9]): SHP-1 binding occurs exclusively under proinflammatory conditions

B1: IFNγ: type II interferon (protein, UniProt P01579 24-161, looked up)
Interferon gamma: QDPYVKEAENLKKYFNAGHSDVADNGTLFLGILKNWKEESDRKIMQSQIVSFYFKLFKNFKDDQSIQKSVETIKEDMNVKFFNSNKKKRDDFEKLTNYSVTDLNVQRKAIHELIQVMAELSPAAKTGKRKRSQMLFRG
binding of SHP-1 to iR ITIMs (SHP-1 [9]): SHP-1 binding occurs exclusively under proinflammatory conditions | antigen presentation (macrophages [8]; plus iShp1 (TPI-1)): significantly increased antigen presentation | proinflammatory cytokine production (macrophages [8]; plus iShp1 (TPI-1)): did not elicit proinflammatory cytokine production

— patent US20260325465A1, “SHP-1 INHIBITORS FOR TREATING CANCER” (MDX MANAGEMENT LLC, priority 2022, published 2026)
